Test results taken from a compilation of properties of binary mixtures (doi:10.1016/j.molliq.2016.02.018).

Assay: xn = mol fraction of the nth substance listed
Conditions: 101 kPa

With `CC(=O)[O-].CCCC[n+]1ccn(C)c1` + CCCC[n+]1ccn(C)c1.O=S(=O)([N-]S(=O)(=O)C(F)(F)F)C(F)(F)F the electrical conductivity (283.15 K, x2 = 0.2396) was 0.0292 S/m, the viscosity (283.15 K, x2 = 0.2396) was 817 mPa·s and the electrical conductivity (283.15 K, x2 = 0.5245) was 0.0623 S/m. It also gave a viscosity (283.15 K, x2 = 0.5245) of 357 mPa·s, an electrical conductivity (283.15 K, x2 = 0.6541) of 0.0888 S/m and a viscosity (283.15 K, x2 = 0.6541) of 248 mPa·s. It also gave an electrical conductivity (283.15 K, x2 = 0.8097) of 0.133 S/m, a viscosity (283.15 K, x2 = 0.8097) of 165 mPa·s and an electrical conductivity (298.15 K, x2 = 0) of 0.0522 S/m. The viscosity (298.15 K, x2 = 0) was 441 mPa·s, the electrical conductivity (298.15 K, x2 = 0.1057) was 0.0683 S/m and the viscosity (298.15 K, x2 = 0.1057) was 343 mPa·s. The electrical conductivity (298.15 K, x2 = 0.2396) was 0.0856 S/m, the viscosity (298.15 K, x2 = 0.2396) was 255 mPa·s and the electrical conductivity (298.15 K, x2 = 0.3662) was 0.109 S/m. For the same compound, the viscosity (298.15 K, x2 = 0.3662) was 192 mPa·s, the electrical conductivity (298.15 K, x2 = 0.5245) was 0.153 S/m and the viscosity (298.15 K, x2 = 0.5245) was 134 mPa·s. For the same compound, the electrical conductivity (298.15 K, x2 = 0.6541) was 0.203 S/m, the viscosity (298.15 K, x2 = 0.6541) was 101 mPa·s and the electrical conductivity (313.15 K, x2 = 0.2396) was 0.196 S/m. It also gave a viscosity (313.15 K, x2 = 0.2396) of 102 mPa·s, an electrical conductivity (313.15 K, x2 = 0.5245) of 0.309 S/m and a viscosity (313.15 K, x2 = 0.5245) of 62 mPa·s. It also gave an electrical conductivity (314.3 K, x2 = 0) of 0.146 S/m, a viscosity (314.3 K, x2 = 0) of 132 mPa·s and an electrical conductivity (314.3 K, x2 = 0.321) of 0.237 S/m. It also gave a viscosity (314.3 K, x2 = 0.321) of 70 mPa·s, an electrical conductivity (314.3 K, x2 = 0.5245) of 0.33 S/m and an electrical conductivity (333.15 K, x2 = 0) of 0.369 S/m. It also gave a viscosity (333.15 K, x2 = 0) of 54.7 mPa·s, an electrical conductivity (333.15 K, x2 = 0.2396) of 0.46 S/m and a viscosity (333.15 K, x2 = 0.2396) of 40.3 mPa·s. For the same compound, the electrical conductivity (333.15 K, x2 = 0.3662) was 0.514 S/m, the viscosity (333.15 K, x2 = 0.3662) was 34.3 mPa·s and the electrical conductivity (333.15 K, x2 = 0.5245) was 0.639 S/m. It also gave a viscosity (333.15 K, x2 = 0.5245) of 27.9 mPa·s, an electrical conductivity (333.15 K, x2 = 0.6541) of 0.755 S/m and a viscosity (333.15 K, x2 = 0.6541) of 23.5 mPa·s. It also gave an electrical conductivity (333.15 K, x2 = 0.8097) of 0.932 S/m and a viscosity (333.15 K, x2 = 0.8097) of 19.4 mPa·s.

Compound `CCCC[n+]1ccn(C)c1.O=S(=O)([N-]S(=O)(=O)C(F)(F)F)C(F)(F)F` + CC(=O)[O-].CCCC[n+]1ccn(C)c1 has an electrical conductivity (283.15 K, x1 = 1) of 0.207 S/m, a viscosity (283.15 K, x1 = 1) of 106 mPa·s and an electrical conductivity (298.15 K, x1 = 1) of 0.404 S/m. For the same compound, the viscosity (298.15 K, x1 = 1) was 51 mPa·s, the electrical conductivity (333.15 K, x1 = 1) was 1.18 S/m and the viscosity (333.15 K, x1 = 1) was 15.5 mPa·s.
